The source of these data is patent US20230263811A1, “APPLICATION OF C[…] TREATMENT OF CORONAVIRUS INFECTIONS” (ACADEMY OF MILITARY MEDICAL SCIENCES, priority 2020, published 2023).

What all share (type): cell-based
Data set [1] is described as follows: Cytotoxicity test of drug (CCK-8 kit). Conditions: African green monkey, Vero E6 cells. The procedure: (§1) The detection of the drug cytotoxicity was performed using CCK-8 kit (Beoytime). Specific steps were as follows:
(§2) 1) 1×10^4 Vero E6 (ATCC) cells were placed in a 96-well plate and incubated at 37° C. for 8 hours.
(§3) 2) The drug was diluted with DMSO to an appropriate concentration of mother liquor, and then diluted with MEM medium (purchased from Gibco, Catalog No. 10370021) containing 2% FBS (purchased from Gibco, Catalog No. 16000044) to the same concentration as that for the drug treatment. The original medium in the 96-well plate was discarded, 100 μL of drug-containing MEM medium was added to the cells, and three replicate wells were prepared for each concentration. Negative control (vehicle group, DMSO and medium were added to the cell wells, without adding drug) and blank control (DMSO and medium were added to the wells, without cells) were set up. After the drug was added, the cells were cultured at 37° C. for 48 hours.
(§4) 3) 20 μL of CCK-8 solution (Beoytime) was added to the well to be tested, mixed gently, without generating bubbles, and continuously incubated at 37° C. for 2 hours. OD450 was read on a microplate reader (purchased from Molecular Devices, Model: SpectraMax M5), and cell viability was calculated:
(§5) Cell activity (%)=(A(drug treatment group)−A(blank control))/(A(vehicle control)−A(blank control))=100%
(§6) wherein A was the reading of the microplate reader.
Background: Tetrazolium assays rely on reduction of a dye to a coloured formazan, in cell work by metabolically active cells.

The test system of a further data set is Vero E6 cells. Briefly: Cytotoxicity test of drug (CCK-8 kit). Conditions: for Cell viability: Vero E6, 48 h. As to the method:
as §1, §2, §3, §4, §5, §6

The next data set has as its system SARS-CoV-2. Briefly: Reduction of viral nucleic acid load of Vero E6 cells infected by SARS-CoV-2 (qRT-PCR of supernatant). Conditions: for Viral genome copy number (MOI = 0.05): infected supernatant, 48 h, vehicle 2215912896 ± 388319129. (In qPCR the cycle at which signal appears reflects the starting amount.)

The CC50 is the concentration giving 50% cytotoxicity. Low values mean greater toxicity to the cells, high ones lower toxicity to the cells. By EC50 is commonly meant the concentration at which the effect is half-maximal. On to `C=C(C)[C@@H]1CCC(C)=C[C@H]1c1c(O)cc(CCCCC)cc1O` [cannabidiol, (−)-2-[(3R,4R)-p-mentha-1,8-dien-3β-yl]-5-pentylresorcinol], for which it took 4100 nM to reach half-maximal cytotoxicity in data set [1] (CC50 at 48 h). For the same compound, the Cell viability with Vero E6 cells (0.78 μM) turned out to be 73.45 ± 7.48%; in the data set on Vero E6 cells (1.56 μM), 74.22 ± 13.42%; in the data set with Vero E6 cells (3.13 μM), 58.45 ± 5.30%; with Vero E6 cells (6.25 μM), 60.07 ± 6.01%; in the data set with Vero E6 cells (12.5 μM), 50.01 ± 8.40%; with Vero E6 cells (25 μM), 38.39 ± 5.70%. For the same compound, the Cell viability is 22.85 ± 18.47% in the data set with Vero E6 cells (50 μM) and 8.87 ± 3.59% with Vero E6 cells (100 μM). Besides, the “Change of cell viability” value in the data set on Vero E6 cells (concentrations of 1.56 μM and 0.78 μM) was “did not change the cell viability”. In addition, the “Viral genome copy number (MOI = 0.05)” value in the data set with SARS-CoV-2 (0.04 μM) is 1853011000 ± 279114748; in the data set on SARS-CoV-2 (0.12 μM), 1860569042 ± 365350110; in the data set with SARS-CoV-2 (0.37 μM), 1224296104 ± 183149682; in the data set with SARS-CoV-2 (1.11 μM) it was 877127896 ± 122398434; in the data set with SARS-CoV-2 (3.33 μM), 668555500 ± 83251338. Also, the “Inhibition of viral RNA load on cells” value in the data set with SARS-CoV-2 (48 h after infection of vero E6 cells with SARS-CoV-2 (FIG. 1)) is listed as “the inhibitory activity was dose-dependent”. The EC50 in the data set with SARS-CoV-2 (Severe acute respiratory syndrome coronavirus 2, Vero C1008, Vero E6 cells, read-out: EC50 against SARS-CoV-2) amounted to 620 nM. Also, the “Inhibition of replication of the SARS-CoV-2 virus genome in the infected supernatant” value in the data set with SARS-CoV-2 (concentrations of 10 μM, 3.3 μM, 1.1 μM and 0.37 μM) was “could effectively inhibit the replication”.
